From ChEMBL document CHEMBL4706531, “Discovery of Novel c-Mesenchymal-Epithelia transition factor and histone deacetylase dual inhibitors” (Eur J Med Chem, 2020)

Tests used:
[1] = system: HCT-116; test: cells; format: functional, cell-based; conditions: Homo sapiens, HCT-116, 72 h
Description: Antiproliferative activity against human HCT-116 cells assessed as inhibition of cell proliferation measured after 72 hrs by MTT assay

[2] = system: MCF7; test: cells; format: functional, cell-based; conditions: Homo sapiens, MCF7, 72 h
Description: Antiproliferative activity against human MCF7 cells assessed as inhibition of cell proliferation measured after 72 hrs by MTT assay

[3] = system: A549; test: cells; format: functional, cell-based; conditions: Homo sapiens, A549, 72 h
Description: Antiproliferative activity against human A549 cells assessed as inhibition of cell proliferation measured after 72 hrs by MTT assay

[4] = biological target: Histone deacetylase 1 (Homo sapiens, UniProt Q13547); conditions: Sf9, dose 100.0 nM, time 75.0 min
[5] = biological target: T1, Hepatocyte growth factor receptor (Homo sapiens, UniProt P08581); conditions: dose 100.0 nM, time 10.0 min
[6] = biological target: T1, Hepatocyte growth factor receptor; test: Inhibition of c-MET(unknown origin) using FAM labelled peptide substrate preincubated for 10 mins followed by substrate addition and measured by microplate reader method

T1 sequence (P08581 whole entry): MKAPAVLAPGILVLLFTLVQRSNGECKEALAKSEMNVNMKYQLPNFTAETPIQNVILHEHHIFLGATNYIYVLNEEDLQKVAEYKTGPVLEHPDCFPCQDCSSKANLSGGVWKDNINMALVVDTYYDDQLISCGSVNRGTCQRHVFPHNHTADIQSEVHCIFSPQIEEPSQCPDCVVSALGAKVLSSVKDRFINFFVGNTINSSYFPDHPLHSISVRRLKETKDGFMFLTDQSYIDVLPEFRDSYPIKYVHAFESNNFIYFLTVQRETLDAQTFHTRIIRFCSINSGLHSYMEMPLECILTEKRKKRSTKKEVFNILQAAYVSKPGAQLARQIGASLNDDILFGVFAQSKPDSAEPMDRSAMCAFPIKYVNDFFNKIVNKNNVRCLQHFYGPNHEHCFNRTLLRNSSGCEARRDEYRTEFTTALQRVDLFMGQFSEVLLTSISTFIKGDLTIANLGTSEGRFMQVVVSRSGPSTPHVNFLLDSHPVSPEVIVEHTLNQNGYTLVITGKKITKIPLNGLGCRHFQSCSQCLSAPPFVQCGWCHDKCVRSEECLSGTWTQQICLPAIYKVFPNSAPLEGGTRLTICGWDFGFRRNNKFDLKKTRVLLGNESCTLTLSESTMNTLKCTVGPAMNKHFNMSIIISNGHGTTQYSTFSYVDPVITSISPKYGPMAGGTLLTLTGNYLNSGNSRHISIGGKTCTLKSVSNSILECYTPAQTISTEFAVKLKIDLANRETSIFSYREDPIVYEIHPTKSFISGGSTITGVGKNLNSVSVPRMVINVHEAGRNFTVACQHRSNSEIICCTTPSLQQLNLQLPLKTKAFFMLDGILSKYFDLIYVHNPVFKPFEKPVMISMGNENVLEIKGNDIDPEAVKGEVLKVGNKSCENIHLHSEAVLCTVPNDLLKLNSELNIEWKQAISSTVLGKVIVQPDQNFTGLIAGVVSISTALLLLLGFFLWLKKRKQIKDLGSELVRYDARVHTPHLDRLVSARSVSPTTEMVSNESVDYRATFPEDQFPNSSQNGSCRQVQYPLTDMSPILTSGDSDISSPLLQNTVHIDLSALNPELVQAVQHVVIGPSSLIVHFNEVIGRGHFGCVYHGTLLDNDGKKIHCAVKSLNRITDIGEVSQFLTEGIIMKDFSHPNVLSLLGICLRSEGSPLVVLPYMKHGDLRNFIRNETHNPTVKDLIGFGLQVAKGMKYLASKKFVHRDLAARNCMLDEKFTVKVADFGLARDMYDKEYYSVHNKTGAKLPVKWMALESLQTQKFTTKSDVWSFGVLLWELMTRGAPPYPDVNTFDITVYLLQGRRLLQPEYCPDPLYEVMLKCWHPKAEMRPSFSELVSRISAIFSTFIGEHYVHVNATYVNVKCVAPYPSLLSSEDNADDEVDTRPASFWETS
Histone deacetylase 1, sequence (Q13547 whole entry): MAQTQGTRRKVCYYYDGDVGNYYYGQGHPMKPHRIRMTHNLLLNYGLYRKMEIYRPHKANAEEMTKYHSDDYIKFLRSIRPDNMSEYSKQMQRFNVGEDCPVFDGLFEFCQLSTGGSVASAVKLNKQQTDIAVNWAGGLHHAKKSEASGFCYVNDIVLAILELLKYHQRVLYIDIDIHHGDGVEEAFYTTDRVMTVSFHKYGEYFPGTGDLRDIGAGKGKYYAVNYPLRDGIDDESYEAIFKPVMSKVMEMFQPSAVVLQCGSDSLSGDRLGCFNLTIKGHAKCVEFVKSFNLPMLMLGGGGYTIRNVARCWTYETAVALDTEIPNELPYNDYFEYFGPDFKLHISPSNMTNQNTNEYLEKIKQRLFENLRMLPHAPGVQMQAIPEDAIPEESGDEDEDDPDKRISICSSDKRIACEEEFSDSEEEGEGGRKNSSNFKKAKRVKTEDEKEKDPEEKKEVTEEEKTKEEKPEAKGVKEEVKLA

Row | SMILES | IC50 [1] | IC50 [2] | IC50 [3] | inhibition [4] | inhibition [5] | IC50 [6]
1 | COc1cc2c(Oc3ccc(NC(=O)c4nn(-c5ccccc5C)cc(C)c4=O)cc3F)ccnc2cc1OCCCC(=O)NO | 2040 nM | 2600 nM | 2090 nM | 8% | 95.5% | 
2 | COc1cc2c(Oc3ccc(NC(=O)c4nn(-c5ccccc5F)cc(C)c4=O)cc3)ccnc2cc1OCCCC(=O)NO | 950 nM | 2650 nM | 3920 nM | 9.2% | 90.8% | 
3 | COc1cc2c(Oc3ccc(NC(=O)c4nn(-c5ccc(C)cc5)cc(C)c4=O)cc3)ccnc2cc1OCCCCCCC(=O)NO | 400 nM | 2560 nM | 160 nM | 47.6% | 72.8% | 
4 | COc1cc2c(Oc3ccc(NC(=O)c4nn(-c5ccc(C)cc5C)cc(C)c4=O)cc3)ccnc2cc1OCCCCCCC(=O)NO | 440 nM | 2430 nM | 1840 nM | 65.3% | 63.8% | 
5 | COc1cc2c(Oc3ccc(NC(=O)c4nn(-c5ccccc5F)cc(C)c4=O)cc3F)ccnc2cc1OCCCCCC(=O)NO | 590 nM | 2320 nM | 1320 nM | 61.1% | 89.1% | 
6 | O=C(CCCCCCC(=O)Nc1ccccc1)NO |  |  |  |  | 2.8% | 
7 | COc1cc2nccc(Oc3ccc(NC(=O)C4(C(=O)Nc5ccc(F)cc5)CC4)cc3)c2cc1OC [CABOZANTINIB] | 4670 nM | 5980 nM | 7800 nM |  |  | 
8 | COc1cc2c(Oc3ccc(NC(=O)c4nn(-c5ccc(Cl)c(C(F)(F)F)c5)cc(C)c4=O)cc3)ccnc2cc1OCC(=O)NO | 350 nM | 3480 nM | 1590 nM | 5.2% | 50.2% | 
9 | COc1cc2c(Oc3ccc(NC(=O)c4nn(-c5ccc(F)c(Cl)c5)cc(C)c4=O)cc3)ccnc2cc1OCCCCCCC(=O)NO | 370 nM | 2200 nM | 380 nM | 40% | 61.1% | 
10 | COc1cc2c(Oc3ccc(NC(=O)c4nn(-c5ccccc5C)ccc4=O)cc3F)ccnc2cc1OCCCC(=O)NO | 3980 nM | 3200 nM | 5740 nM | 6% | 93.5% | 
11 | COc1cc2c(Oc3ccc(NC(=O)c4nn(-c5ccccc5)cc(C)c4=O)cc3F)ccnc2cc1OCCCCCC(=O)NO | 690 nM | 2330 nM | 4170 nM | 53.3% | 95% | 
12 | COc1cc2c(Oc3ccc(NC(=O)c4nn(-c5ccccc5)cc(C)c4=O)cc3F)ccnc2cc1OCCCN1CCOCC1 | 370 nM | 630 nM | 1120 nM |  | 93.8% | 7.42 nM
13 | COc1cc2c(Oc3ccc(NC(=O)c4nn(-c5ccccc5C)cc(C)c4=O)cc3)ccnc2cc1OCCCCCCC(=O)NO | 660 nM | 1830 nM | 3130 nM | 89.1% | 78.6% | 
